Measurements: paper PMC11247499, “2,8-Disubstituted-1,5-naphthyridines as Dual Inhibitors of Plasmodium falciparum Phosphatidylinositol-4-kinase and Hemozoin Formation with In Vivo Efficacy” (Journal of Medicinal Chemistry, 2024)
Converted amounts (≈) assume the structure as drawn. “And” between values parts separate entries of the source, which are not always exact repeats. Equal entries are not always repeated. Where two headings read alike, the source gives them in different places.

Assays:
β-hematin (βH) formation = test: NP-40 mediated cell-free β-hematin assay; conditions: read-out: β-hematin IC50
PvPI4K = PvPI4K (Plasmodium vivax, UniProt A5KB26); test: biochemical
[1] = test system: P. falciparum NF54 strain; test: Antiplasmodial activity, parasite lactate dehydrogenase assay, NF54; type: cell-based, Plasmodium falciparum; conditions: Plasmodium falciparum, NF54, 72 h, parasite lactate dehydrogenase assay over 72 h; read-out: Pf IC50 ± SD NF54
[2] = Solubility, miniaturized shake flask method
[3] = In vitro microsomal stability, mouse; type: in vitro ADME; conditions: mouse liver microsomes, pH 7.4, read-out: microsomal CLint, app mouse
[4] = test system: Chinese Hamster Ovary (CHO) cell line; test: cells; type: cell-based; conditions: Cricetulus griseus, CHO, read-out: CHO IC50
[5] = Plasma protein binding, mouse; type: in vitro ADME; conditions: read-out: PPB fu, mouse
[6] = Plasma protein binding, human; type: in vitro ADME; conditions: pooled human plasma, read-out: PPB fu, human
LogD shake-flask = type: physicochemical; conditions: n-octanol/phosphate buffer (1:1), phosphate buffer (pH 7.4) / n-octanol
[7] = test system: multidrug-resistant strain, K1; test: Antiplasmodial activity, parasite lactate dehydrogenase assay, K1; type: cell-based, Plasmodium falciparum; conditions: Plasmodium falciparum, K1, 72 h, parasite lactate dehydrogenase assay over 72 h; read-out: Pf IC50 ± SD K1
[8] = Mouse pharmacokinetic studies; conditions: male, BalbC
[9] = In vitro microsomal stability, human; type: in vitro ADME; conditions: pooled human liver microsomes, pH 7.4, read-out: microsomal CLint, app human
[10] = In vitro microsomal stability, rat; type: in vitro ADME; conditions: rat liver microsomes, pH 7.4, read-out: microsomal CLint, app rat
[11] = test system: P. falciparum male gametes; test: microbe, parasite or virus in culture; conditions: Plasmodium falciparum, 48 h, read-out: inhibition of exflagellation
[12] = cell-free NP-40 detergent-mediated assay, n = 2

Chain of PvPI4K (A5KB26 entry or part of it): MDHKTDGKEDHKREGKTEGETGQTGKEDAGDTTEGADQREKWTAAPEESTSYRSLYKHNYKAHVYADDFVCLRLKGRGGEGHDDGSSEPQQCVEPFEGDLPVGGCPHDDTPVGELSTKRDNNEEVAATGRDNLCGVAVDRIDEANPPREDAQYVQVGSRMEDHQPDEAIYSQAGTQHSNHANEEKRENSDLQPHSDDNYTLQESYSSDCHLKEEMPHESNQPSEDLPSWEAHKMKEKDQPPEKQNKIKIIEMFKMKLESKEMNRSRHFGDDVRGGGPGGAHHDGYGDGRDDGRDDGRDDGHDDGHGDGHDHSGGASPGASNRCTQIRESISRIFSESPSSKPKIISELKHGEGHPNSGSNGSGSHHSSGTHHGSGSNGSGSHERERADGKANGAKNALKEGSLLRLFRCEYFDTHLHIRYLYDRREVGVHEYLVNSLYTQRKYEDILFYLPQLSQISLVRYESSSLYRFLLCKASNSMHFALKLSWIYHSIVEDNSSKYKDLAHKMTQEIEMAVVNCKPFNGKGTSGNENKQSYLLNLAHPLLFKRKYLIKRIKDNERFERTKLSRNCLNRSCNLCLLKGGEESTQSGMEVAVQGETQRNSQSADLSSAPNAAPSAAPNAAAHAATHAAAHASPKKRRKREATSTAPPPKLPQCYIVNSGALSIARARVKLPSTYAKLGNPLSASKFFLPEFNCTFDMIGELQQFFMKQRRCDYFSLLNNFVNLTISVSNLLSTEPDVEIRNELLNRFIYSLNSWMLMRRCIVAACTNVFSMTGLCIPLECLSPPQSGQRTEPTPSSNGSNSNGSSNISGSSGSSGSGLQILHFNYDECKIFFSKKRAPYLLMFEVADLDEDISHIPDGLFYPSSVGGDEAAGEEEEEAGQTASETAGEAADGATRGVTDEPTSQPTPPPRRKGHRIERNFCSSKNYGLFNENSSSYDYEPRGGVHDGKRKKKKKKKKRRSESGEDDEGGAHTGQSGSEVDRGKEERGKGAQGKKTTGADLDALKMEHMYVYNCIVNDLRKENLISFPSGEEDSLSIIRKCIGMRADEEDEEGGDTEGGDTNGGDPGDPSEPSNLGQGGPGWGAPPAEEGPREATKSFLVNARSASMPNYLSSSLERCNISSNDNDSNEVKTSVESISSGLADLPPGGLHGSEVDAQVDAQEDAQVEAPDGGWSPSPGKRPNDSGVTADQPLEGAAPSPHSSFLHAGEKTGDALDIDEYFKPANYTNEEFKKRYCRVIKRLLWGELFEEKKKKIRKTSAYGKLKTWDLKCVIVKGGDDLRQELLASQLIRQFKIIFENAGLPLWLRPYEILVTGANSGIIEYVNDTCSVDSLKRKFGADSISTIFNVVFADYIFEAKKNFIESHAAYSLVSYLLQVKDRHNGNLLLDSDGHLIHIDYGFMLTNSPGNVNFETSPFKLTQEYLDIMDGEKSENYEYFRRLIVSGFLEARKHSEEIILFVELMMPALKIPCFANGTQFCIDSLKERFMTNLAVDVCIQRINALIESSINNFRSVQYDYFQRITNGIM

Question: For `FC(F)CN1CCC(Nc2ccnc3ccc(-c4ccc(C(F)(F)F)nc4)nc23)CC1` [Compound 23, N-[1-(2,2-Difluoroethyl)piperidin-4-yl]-6-[6-(trifluoromethyl)pyridin-3-yl]-1,5-naphthyridin-4-amine], which solubility (physchem) is on record?
Answer: The solubility was 20 µM (≈ 8.75 µg/mL).

Question: What about the IC50 (β-hematin (βH) formation; [12]) of the same compound?
Answer: Its IC50 is 30 µM and < 60 µM.

Question: What about the IC50 (PvPI4K) of the same compound?
Answer: Its IC50 is 0.053 ± 0.028 µM.

Question: And the IC50 [1]?
Answer: Its IC50 is 0.88 ± 0.034 µM.

Question: With `CN1CCC(Nc2ccnc3ccc(-c4ccc(C(F)(F)F)nc4)nc23)CC1` [Compound 21, N-(1-Methylpiperidin-4-yl)-6-[6-(trifluoromethyl)pyridin-3-yl]-1,5-naphthyridin-4-amine] as the compound, how does the solubility at 20 h ([2]; PBS, pH 6.5) read?
Answer: Its solubility at 20 h is 160 µM (≈ 62 µg/mL).

Question: And the solubility at 20 h ([2]; aqueous solution)?
Answer: The solubility at 20 h was 160 µM (≈ 62 µg/mL).

Question: And the CLint scaled at 1 µM [3]?
Answer: Its CLint scaled at 1 µM is less than 2.76 L/h/kg.

Question: And the IC50 ([4]; MTT assay over 48h)?
Answer: Its IC50 is greater than 50 µM.

Question: What about the fraction unbound at 5 h, 5 µM [5] of the same compound?
Answer: The fraction unbound at 5 h, 5 µM was 0.3.

Question: And the fraction unbound at 5 h, 5 µM [6]?
Answer: The fraction unbound at 5 h, 5 µM was 0.5.

Question: What about the logD at 3 h (LogD shake-flask) of the same compound?
Answer: The logD at 3 h was 1.86.

Question: And the IC50 (β-hematin (βH) formation; [12])?
Answer: The IC50 was 35 µM and < 60 µM.

Question: What about the IC50 [7] of the same compound?
Answer: Its IC50 is 0.162 ± 0.004 µM.

Question: What about the “in vivo mouse CLu” value [8] of the same compound?
Answer: Its value is 1.32 L/h/kg.

Question: And the Vd at 24 h ([8]; in vivo, iv, 2 mg/kg)?
Answer: The Vd at 24 h was 12 L/kg.

Question: And the half-life at 24 h ([8]; in vivo, iv, 2 mg/kg)?
Answer: Its half-life at 24 h is 16 h.

Question: What about the bioavailability at 24 h ([8]; in vivo, po) of the same compound?
Answer: The bioavailability at 24 h was 99%.

Question: What about the “in vivo mouse CLb” value ([8]; iv, 2 mg/kg) of the same compound?
Answer: The value was 0.594 L/h/kg.

Question: And the CLint scaled at 1 µM [9]?
Answer: The CLint scaled at 1 µM was less than 0.6 L/h/kg.

Question: What about the IC50 (PvPI4K; purified recombinant PvPI4K, 10 μM ATP, ADP-Glo, mean of N ≥ 2, read-out: PvPI4K IC50 ± SD) of the same compound?
Answer: The IC50 was 0.175 ± 0.082 µM.

Question: What about the CLint scaled at 1 µM [10] of the same compound?
Answer: The CLint scaled at 1 µM was less than 1.26 L/h/kg.

Question: And the IC50 [1]?
Answer: The IC50 was 0.052 ± 0.014 µM.

Question: For `NS(=O)(=O)c1cccc(-c2ccc3nccc(-c4ccnc(C(F)(F)F)c4)c3n2)c1` [Compound 1], which IC50 ([4]; 48 h) is on record?
Answer: The IC50 was 6 µM.

Question: What about the inhibition at 2 µM [11] of the same compound?
Answer: Its inhibition at 2 µM is 60%.

Question: And the IC50 (β-hematin (βH) formation)?
Answer: The IC50 was greater than 500 µM.
